Data taken from PMC6499206, “Quantification of Volatile Metabolites Derived From Garlic (Allium sativum) in Human Urine” (Frontiers in Nutrition, 2019).

Assay: Quantification of garlic-derived metabolites in human urine after ingestion of 3 g raw garlic (SIDA, SAFE, HRGC-MS / HRGC-GC-MS)
Assay type: in vivo
Conditions: 3 g raw garlic
Text: Human urine samples were obtained from 18 volunteers (age 22–38 years, mean 27 years; 11 females, 7 males); thereby, one volunteer conducted the whole experimental series twice. At the time of examination, volunteers reported no known illness that might have potentially influenced the metabolism or the excretion of urine. The test persons were instructed to avoid foods that were rich in sulfur-containing substances at the testing day as well as 2 days preceding the testing day, namely garlic, onion, wild garlic, chives, cabbage, and leek, and were only allowed to consume the garlic sample provided in the course of the experiments. Additionally, subjects were asked to keep records of the food (including food supplements) and beverages they consumed during these 3 testing days. Generally, the overall panelists' requirements were in accordance with our previous studies ([5], [16]).
On the sampling day, the outer garlic cloves of a whole garlic bulb were peeled and cut into ~3 mm cubes by using a garlic cutter (Genius GmbH, Limburg/Lahn, Germany). Subsequently these cubes were thoroughly mixed and aliquoted into 3 g portions. Three to four test persons conducted the experiment at the same day. Each test person was asked to ingest a garlic portion of 3 g. In total, eight consecutive urine samples were provided by each test person, comprising one whole urine set. The samples were collected in sterile brown glass bottles, with sampling times as follows: one sample was provided directly prior to garlic consumption. The series of the second to eighth sample was then obtained at about 0.5, 1, 2, 4, 6, 8, and 24 h after garlic consumption, respectively. Between the first urine sample (prior to garlic consumption) and the seventh urine sample (8 h after garlic consumption) test persons only spent urine at the specific time points mentioned before. Another sample was provided at the next morning (24 h after garlic consumption). Between the samples provided 8 and 24 h after garlic consumption no urine was collected. All samples were immediately placed into a −80°C freezer and were kept frozen until further analysis.
The samples of each set were termed according to their sampling time. The following list provides the time intervals that are related to the respective sample name: • - pre: before garlic consumption • - 0.5 h post: 0.4–0.8 h after garlic consumption • - 1 h post: 0.9–1.3 h after garlic consumption • - 2 h post: 1.8 h−2.2 h after garlic consumption • - 4 h post: 3.8–4.4 h after garlic consumption • - 6 h post: 5.8–6.4 h after garlic consumption • - 8 h post: 7.8–8.4 h after garlic consumption • - 24 h post: 23.8–25.6 h after garlic consumption
A creatinine kit (Labor+Technik Eberhard Lehmann GmbH, Berlin, Germany) was used to determine the creatinine content in each urine sample. The determination principle of this kit is based on the reaction of creatinine with picric acid under basic conditions (Jaffé reaction). The formed complex was detected photometrically at a wavelength of 492 nm.
For quantification purposes, the deuterated standards ^2H3-AMS, ^2H3-AMSO, and ^2H3-AMSO2 were added to the sample and stirred for 10 min. Subsequently, DCM was added in a ratio of 1:2 (DCM/human urine; v/v) and this solution was stirred for further 30 min at room temperature. To isolate the volatile fraction from the urine samples we then applied SAFE-distillation ([17]), thereby distilling the respective samples at 50°C. After completion of the distillation process, 10 mL of DCM were applied in each case to rinse the SAFE apparatus and to ensure complete transition of the volatile compounds. This process was repeated with another 10 mL of DCM. After thawing, the obtained aqueous distillate phase was extracted three times with 25 mL DCM. The organic phases were combined, dried over anhydrous Na2SO4 and concentrated to a total volume of 100 μL by means of Vigreux distillation and subsequent micro-distillation at 50°C. […]

metabolite concentration in urine, creatinine-normalized (U VII, 1 h post (1.08 h)): 0.8 µg/mmol creatinine | metabolite concentration in urine (U VII, 2 h post (2.00 h)): 0.8 µg/kg | metabolite concentration in urine, creatinine-normalized (U VII, 2 h post (2.00 h)): 0.8 µg/mmol creatinine | metabolite concentration in urine (U VII, 4 h post (4.00 h)): 0.6 µg/kg | metabolite concentration in urine, creatinine-normalized (U VII, 4 h post (4.00 h)): 0.3 µg/mmol creatinine | metabolite concentration in urine (U VII, 6 h post (6.00 h)): 0.7 µg/kg | metabolite concentration in urine, creatinine-normalized (U VII, 6 h post (6.00 h)): 0.2 µg/mmol creatinine | metabolite concentration in urine (U VII, 8 h post (8.00 h)): 0.4 µg/kg | metabolite concentration in urine, creatinine-normalized (U VII, 8 h post (8.00 h)): 0.2 µg/mmol creatinine | metabolite concentration in urine (U VII, 24 h post (24.00 h)): traces^1 | metabolite concentration in urine, creatinine-normalized (U VII, 24 h post (24.00 h)): traces^1 | metabolite concentration in urine (U VII, pre (-0.25 h)): traces^1 | metabolite concentration in urine, creatinine-normalized (U VII, pre (-0.25 h)): traces^1 | metabolite concentration in urine (U VIII, 0.5 h post (0.52 h)): 1.9 µg/kg | metabolite concentration in urine, creatinine-normalized (U VIII, 0.5 h post (0.52 h)): 2.3 µg/mmol creatinine | metabolite concentration in urine (U VIII, 1 h post (1.08 h)): 1.9 µg/kg | metabolite concentration in urine, creatinine-normalized (U VIII, 1 h post (1.08 h)): 1.1 µg/mmol creatinine | metabolite concentration in urine (U VIII, 2 h post (2.08 h)): 1.5 µg/kg | metabolite concentration in urine, creatinine-normalized (U VIII, 2 h post (2.08 h)): 1.4 µg/mmol creatinine | metabolite concentration in urine (U VIII, 4 h post (4.07 h)): 1.6 µg/kg | metabolite concentration in urine, creatinine-normalized (U VIII, 4 h post (4.07 h)): 0.7 µg/mmol creatinine | metabolite concentration in urine (U VIII, 6 h post (6.08 h)): 1.3 µg/kg | metabolite concentration in urine, creatinine-normalized (U VIII, 6 h post (6.08 h)): 0.3 µg/mmol creatinine | metabolite concentration in urine (U VIII, 8 h post (7.90 h)): 0.8 µg/kg | metabolite concentration in urine, creatinine-normalized (U VIII, 8 h post (7.90 h)): 0.3 µg/mmol creatinine | metabolite concentration in urine (U VIII, 24 h post (23.83 h)): 0.3 µg/kg | metabolite concentration in urine, creatinine-normalized (U VIII, 24 h post (23.83 h)): 0.1 µg/mmol creatinine | metabolite concentration in urine (U VIII, pre (-0.33 h)): 0.5 µg/kg | metabolite concentration in urine, creatinine-normalized (U VIII, pre (-0.33 h)): 0.1 µg/mmol creatinine | metabolite concentration in urine (U X, 0.5 h post (0.53 h)): 0.4 µg/kg | metabolite concentration in urine, creatinine-normalized (U X, 0.5 h post (0.53 h)): 0.2 µg/mmol creatinine | metabolite concentration in urine (U X, 1 h post (1.03 h)): 0.4 µg/kg | metabolite concentration in urine, creatinine-normalized (U X, 1 h post (1.03 h)): 0.5 µg/mmol creatinine | metabolite concentration in urine (U X, 2 h post (2.03 h)): 0.3 µg/kg | metabolite concentration in urine, creatinine-normalized (U X, 2 h post (2.03 h)): 0.5 µg/mmol creatinine | metabolite concentration in urine (U X, 4 h post (3.85 h)): 0.4 µg/kg | metabolite concentration in urine, creatinine-normalized (U X, 4 h post (3.85 h)): 0.3 µg/mmol creatinine | metabolite concentration in urine (U X, 6 h post (5.80 h)): 0.5 µg/kg | metabolite concentration in urine, creatinine-normalized (U X, 6 h post (5.80 h)): 0.2 µg/mmol creatinine | metabolite concentration in urine (U X, 8 h post (7.75 h)): 0.3 µg/kg | metabolite concentration in urine, creatinine-normalized (U X, 8 h post (7.75 h)): 0.1 µg/mmol creatinine | metabolite concentration in urine (U X, 24 h post (23.97 h)): 0.2 µg/kg | metabolite concentration in urine, creatinine-normalized (U X, 24 h post (23.97 h)): 0.02 µg/mmol creatinine | metabolite concentration in urine (U X, pre (-0.07 h)): < LOD^1 | metabolite concentration in urine, creatinine-normalized (U X, pre (-0.07 h)): < LOD^1 | metabolite concentration in urine (U XI, 0.5 h post (0.50 h)): 0.4 µg/kg | metabolite concentration in urine, creatinine-normalized (U XI, 0.5 h post (0.50 h)): 0.4 µg/mmol creatinine | metabolite concentration in urine (U XI, 1 h post (1.02 h)): 0.6 µg/kg | metabolite concentration in urine, creatinine-normalized (U XI, 1 h post (1.02 h)): 0.7 µg/mmol creatinine | metabolite concentration in urine (U XI, 2 h post (2.00 h)): 0.5 µg/kg | metabolite concentration in urine, creatinine-normalized (U XI, 2 h post (2.00 h)): 0.7 µg/mmol creatinine | metabolite concentration in urine (U XI, pre (-0.08 h)): 0.8 µg/kg | metabolite concentration in urine, creatinine-normalized (U XI, pre (-0.08 h)): 0.2 µg/mmol creatinine | metabolite concentration in urine (U XII, 0.5 h post (0.48 h)): 0.3 µg/kg | metabolite concentration in urine, creatinine-normalized (U XII, 0.5 h post (0.48 h)): 0.04 µg/mmol creatinine | metabolite concentration in urine (U XII, 1 h post (1.03 h)): 0.3 µg/kg | metabolite concentration in urine, creatinine-normalized (U XII, 1 h post (1.03 h)): 0.3 µg/mmol creatinine | metabolite concentration in urine (U XII, 2 h post (1.85 h)): 0.9 µg/kg
SMILES: C=CCSC [AMS, allyl methyl sulfide]
